Assay [1] deals with H1975 (KRAS wild type human lung adenocarcinoma cell line). Description: KRAS 3D-Cell Proliferation Assay, H1975 (Example 503). The format is cell-based. As to conditions: H1975 3D culture, 7 days, CellTiter-Glo 3D, read-out: Prolif H1975 3D ATP IC50. How it is done: (§1) Example 503: KRAS 3D-Cell Proliferation Assays. Cellular potencies of compounds are assessed by evaluating inhibition of proliferation in 3D cultures of homozygous mutant KRAS G12D human pancreatic cell lines (AsPC-1 and HPAC) as compared to a KRAS wild type human lung adenocarcinoma cell line (PC-9 and/or H1975). Cells are seeded into 384-well black round-bottom, ultra-low attachment assay plates in 50 uL cell growth medium (RPMI-1640 with 10% fetal bovine serum and 2 mM L-glutamine). After overnight incubation at 37° C. and 5% CO2, compounds solubilized in DMSO are added as dilution series to the wells in a total volume of 150 nL (0.3% DMSO final). The cells are incubated for 7 days at 37° C. and 5% CO2. Cell proliferation is quantitated by addition of 40 uL/well of CellTiter-GloÒ 3D (Promega), and the well contents are mixed 20× at high speed using liquid handling automation workstation (Bravo with 384-well head) and centrifuged at 1500 rpm for 2 minutes to eliminate bubbles. This reagent in combination with mechanical disruption releases the cellular ATP to promote activity in a luciferase-based enzyme/substrate chemiluminescent detection system. After a 30-minute incubation under ambient conditions with shaking and an additional 10 minutes without shaking, the luminescence is read on a plate reader (e.g., EnVision [PerkinElmer]). The results are normalized to percent inhibition based on the following control samples: DMSO (0% inhibition) and 1 μM staurosporine (100% inhibition). The normalized luminescence results are plotted against compound concentration, and the data are fit to a 4-parameter Hill equation to determine the IC50 values.

In assay [2] the test system is HPAC (homozygous mutant KRAS G12D human pancreatic cell line). Description: KRAS 3D-Cell Proliferation Assay, HPAC (Example 503). Format: cell-based. As to conditions: HPAC 3D culture, 7 days, CellTiter-Glo 3D, read-out: Prolif HPAC 3D ATP IC50. How it is done:
as §1
In general terms: ATP-based viability assays read luminescence as a measure of living cells.

Like-named read-outs stand apart in the source and are kept apart here.

This is an account of results in patent publication US12338256B2, “Aza-tetracyclic oxazepine compounds and uses thereof” (Genentech, Inc., priority 2022, dated 2025).

The IC50 is the concentration at which inhibition is half-maximal. Turning to `Cc1nc(N)cc(-c2nc3c4c(nc(OCC5(CN6CC[C@@H](F)C6)CC5)nc4c2F)N2C[C@H]4CC[C@H](N4)[C@H]2[C@H](C)O3)c1C(F)(F)F` [Compound 284, 4-((5S,5aS,6S,9R)-1-fluoro-12-((1-(((R)-3-fluoropyrrolidin-1-yl)methyl)cyclopropyl)methoxy)-5-methyl-5a,6,7,8,9,10-hexahydro-5H-4-oxa-3,10a,11,13,14-pentaaza-6,9-methanonaphtho[1,8-ab]heptalen-2-yl)-6-methyl-5-(trifluoromethyl)pyridin-2-amine], the IC50 came to 0.49 µM in assay [1] (Homo sapiens, NCI-H1975, 168 h) and 0.00123 µM in assay [2] (Homo sapiens, HPAC, 168 h).

Turning to `C[C@@H]1Oc2nc(-c3cc(N)c(F)c(C4CC4)c3C(F)(F)F)c(F)c3nc(OC[C@@H]4CC[C@H]5COCCN54)nc(c23)N2C[C@H]3CC[C@H](N3)[C@@H]12` [Compound 233, 3-Cyclopropyl-2-fluoro-5-((5S,5aS,6S,9R)-1-fluoro-12-(((6S,8aS)-hexahydro-1H-pyrrolo[2,1-c][1,4]oxazin-6-yl)methoxy)-5-methyl-5a,6,7,8,9,10-hexahydro-5H-4-oxa-3,10a,11,13,14-pentaaza-6,9-methanonaphtho[1,8-ab]heptalen-2-yl)-4-(trifluoromethyl)aniline], the IC50 in assay [1] (Homo sapiens, NCI-H1975, 168 h) turned out to be 5.4 µM; in assay [2] (Homo sapiens, HPAC, 168 h) it was 2 µM.

As for `Cc1nc(N)cc(-c2nc3c4c(nc(OCC5(CN6CC7COCC7C6)CC5)nc4c2F)N2C[C@H]4CC[C@H](N4)[C@H]2[C@H](C)O3)c1C(F)(F)F` (stereo partly drawn) [Compound 205, 4-((5S,5aS,6S,9R)-1-Fluoro-5-methyl-12-((1-((tetrahydro-1H-furo[3,4-c]pyrrol-5(3H)-yl)methyl)cyclopropyl)methoxy)-5a,6,7,8,9,10-hexahydro-5H-4-oxa-3,10a,11,13,14-pentaaza-6,9-methanonaphtho[1,8-ab]heptalen-2-yl)-6-methyl-5-(trifluoromethyl)pyridin-2-amine], the IC50 stood at 1.13 µM in assay [1] (Homo sapiens, NCI-H1975, 168 h) and 0.00335 µM in assay [2] (Homo sapiens, HPAC, 168 h).

For the compound `Cc1cc(N)c(F)c(-c2nc3c4c(nc(OC[C@@H]5CC[C@H]6COCCN65)nc4c2F)N2C[C@H]4CC[C@H](N4)[C@H]2[C@H](C)O3)c1C(F)(F)C(F)(F)F` [Compound 100, 2-Fluoro-3-((5S,5aS,6S,9R)-1-fluoro-12-(((6S,8aS)-hexahydro-1H-pyrrolo[2,1-c][1,4]oxazin-6-yl)methoxy)-5-methyl-5a,6,7,8,9,10-hexahydro-5H-4-oxa-3,10a,11,13,14-pentaaza-6,9-methanonaphtho[1,8-ab]heptalen-2-yl)-5-methyl-4-(perfluoroethyl)aniline], the IC50 turned out to be 3.97 µM in assay [1] (Homo sapiens, NCI-H1975, 168 h) and 0.0218 µM in assay [2] (Homo sapiens, HPAC, 168 h).

Consider `COC1(C)CN(CC2(COc3nc4c5c(nc(-c6cc(N)nc(C)c6C(F)(F)F)c(F)c5n3)O[C@@H](C)[C@@H]3[C@@H]5CC[C@H](CN43)N5)CC2)C1` [Compound 273, 4-((5S,5aS,6S,9R)-1-fluoro-12-((1-((3-methoxy-3-methylazetidin-1-yl)methyl)cyclopropyl)methoxy)-5-methyl-5a,6,7,8,9,10-hexahydro-5H-4-oxa-3,10a,11,13,14-pentaaza-6,9-methanonaphtho[1,8-ab]heptalene-2-yl)-6-methyl-5-(trifluoromethyl)pyridin-2-amine], for which the IC50 in assay [1] (Homo sapiens, NCI-H1975, 168 h) stood at 3.19 µM; in assay [2] (Homo sapiens, HPAC, 168 h) it was 0.00653 µM.

`Cc1cc(N)cc(-c2nc3c4c(nc(OC[C@@]56CCCN5C[C@H](F)C6)nc4c2F)N2C[C@H]4CC[C@H](N4)[C@H]2[C@H](C)O3)c1Cl` [Compound 74, 4-Chloro-3-((5S,5aS,6S,9R)-1-fluoro-12-(((2R,7aS)-2-fluorotetrahydro-1H-pyrrolizin-7a(5H)-yl)methoxy)-5-methyl-5a,6,7,8,9,10-hexahydro-5H-4-oxa-3,10a,11,13,14-pentaaza-6,9-methanonaphtho[1,8-ab]heptalen-2-yl)-5-methylaniline]: the IC50 came to 2.04 µM in assay [1] (Homo sapiens, NCI-H1975, 168 h) and 0.0057 µM in assay [2] (Homo sapiens, HPAC, 168 h).

Consider `Cc1nc(N)cc(-c2nc3c4c(nc(OCC5(CN6CC7CCC6CO7)CC5)nc4c2F)N2C[C@H]4CC[C@H](N4)[C@H]2[C@H](C)O3)c1C(F)(F)F` [Compound 211, 4-((5S,5aS,6S,9R)-12-((1-((2-Oxa-5-azabicyclo[2.2.2]octan-5-yl)methyl)cyclopropyl)methoxy)-1-fluoro-5-methyl-5°,6,7,8,9,10-hexahydro-5H-4-oxa-3,10°,11,13,14-pentaaza-6,9-methanonaphtho[1,8-ab]heptalen-2-yl)-6-methyl-5-(trifluoromethyl)pyridin-2-amine], for which the IC50 in assay [1] (Homo sapiens, NCI-H1975, 168 h) stood at 1.15 µM; in assay [2] (Homo sapiens, HPAC, 168 h) it was 0.00145 µM.

As for `Cc1c(F)c(N)cc(-c2nc3c4c(nc(OCC56CCN5CC(F)(F)C6)nc4c2F)N2C[C@H]4CC[C@H](N4)[C@H]2[C@H](C(F)(F)F)O3)c1C(F)(F)F` (mixture of isomers) [Compound 244, 5-((5R,5aS,6S,9R)-12-((3,3-Difluoro-1-azabicyclo[3.2.0]heptan-5-yl)methoxy)-1-fluoro-5-(trifluoromethyl)-5a,6,7,8,9,10-hexahydro-5H-4-oxa-3,10a,11,13,14-pentaaza-6,9-methanonaphtho[1,8-ab]heptalene-2-yl)-2-fluoro-3-methyl-4-(trifluoromethyl)aniline], the IC50 in assay [1] (Homo sapiens, NCI-H1975, 168 h) worked out at 0.258 µM; in assay [2] (Homo sapiens, HPAC, 168 h), 0.00614 µM.

`Cc1c(F)c(N)cc(-c2nc3c4c(nc(OCC5CC6COCCN65)nc4c2F)N2C[C@H]4CC[C@H](N4)[C@H]2[C@H](C)O3)c1C(F)(F)F` (single isomer, unassigned) [159 (diast. 1)]: the IC50 in assay [2] (Homo sapiens, HPAC, 168 h) was 0.0369 µM.

As to `C[C@@H]1Oc2nc(-c3cc(N)c(F)cc3[C@H](C)C(F)F)c(F)c3nc(OC[C@@]45CCCN4C[C@H](F)C5)nc(c23)N2C[C@H]3CC[C@H](N3)[C@@H]12` (single isomer, unassigned) [181 (isomer 1)], in assay [1] (Homo sapiens, NCI-H1975, 168 h), the IC50 came to 12.3 µM.

For the compound `Cc1c(F)c(N)cc(-c2nc3c4c(nc(OC[C@]5(CN6C[C@H]7C[C@@H]6CO7)CC5(F)F)nc4c2F)N2C[C@H]4CC[C@H](N4)[C@H]2[C@H](C)O3)c1C(F)(F)F` (single isomer, unassigned) [166 a], the IC50 in assay [2] amounted to 0.00144 µM.

In the case of `Cc1c(F)c(N)cc(-c2nc3c4c(nc(OCC5COCC6CCCN65)nc4c2F)N2CC4CCC(N4)C2C(C)O3)c1C(F)(F)F` (single isomer, unassigned) [121 (isomer 1)], the IC50 in assay [2] (Homo sapiens, HPAC, 168 h) was determined as 0.0125 µM.

On to `Cc1nc(N)cc(-c2nc3c4c(nc(OCC5N(C)CC56CC6(F)F)nc4c2F)N2CC4CCC(N4)C2C(C(F)(F)F)O3)c1C(F)(F)F` (single isomer, unassigned) [262 (isomer 2)], for which the half-inhibitory concentration (IC50) in assay [2] (Homo sapiens, HPAC, 168 h) was determined as 0.123 µM.

With `Cc1c(F)c(N)cc(-c2nc3c4c(nc(OC[C@@]56CCCN5C[C@H](F)C6)nc4c2F)N2C[C@H]4CC[C@H](N4)C2C(C(F)F)O3)c1C(F)(F)F` (single isomer, unassigned) [238 (isomer 2)], the IC50 in assay [2] came to 2 µM.

Regarding `Cc1c(F)c(N)cc(-c2nc3c4c(nc(OCC56CCCN5CCN(C)C6=O)nc4c2F)N2C[C@H]4CC[C@H](N4)[C@H]2[C@H](C)O3)c1C(F)(F)F` (single isomer, unassigned) [137 (isomer 2)], in assay [1], the IC50 amounted to 20 µM.

Regarding `Cc1c(F)c(N)cc(-c2nc3c4c(nc(OCC5CCC6CN(C)C(=O)CN56)nc4c2F)N2CC4CCC(N4)C2C(C)O3)c1C(F)(F)F` (single isomer, unassigned) [131 (isomer 4)], the IC50 in assay [1] (Homo sapiens, NCI-H1975, 168 h) is 6.81 µM.

Regarding `Cc1c(F)c(N)cc(-c2nc3c4c(nc(OCC56CCCN5CC(F)C6F)nc4c2F)N2CC4CCC(N4)C2C(C)O3)c1C(F)(F)F` (single isomer, unassigned) [143 (isomer 3)], the IC50 in assay [2] (Homo sapiens, HPAC, 168 h) came to 0.00477 µM.
